Results reported in PMC6468028 (Protein & Cell, 2018).

How the values were obtained:
[1] = target: T1, L-fucokinase/GDP-fucose pyrophosphorylase (FKP); BfFKP (Bacteroides fragilis, UniProt Q58T34); test: NADH coupled assay of fucokinase activity; format: biochemical; settings: co-substrate ATP; C-terminal fucokinase domain
T1 construct: full-length wild type, overexpressed and purified; about 105 kDa protomer, tetramer; model covers residues 71-398 and 467-949

[2] = target: the molecule itself; test: SEC; purified FKP on size exclusion chromatography; eluted at the volume of the 440 kDa molecular weight marker

Molecule | NADH coupled assay of fucokinase activity [1] | stoichiometry N [2]
C[C@@H]1OC(O)[C@@H](O)[C@H](O)[C@@H]1O (stereo partly drawn) [L-fucose, 6-deoxy-L-galactose] | We applied the NADH coupled assay and the pyrophosphate assay to characterize the fucokinase activity | –
L-fucokinase/GDP-fucose pyrophosphorylase (FKP) from Bacteroides fragilis 9343, full-length wild type (enzyme, UniProt Q58T34 1-949, looked up) MQKLLSLPSNLVQSFHELERVNRTDWFCTSDPVGKKLGSGGGTSWLLEECYNEYSDGATFGEWLEKEKRILLHAGGQSRRLPGYAPSGKILTPVPVFRWERGQHLGQNLLSLQLPLYEKIMSLAPDKLHTLIASGDVYIRSEKPLQSIPEADVVCYGLWVDPSLATHHGVFASDRKHPEQLDFMLQKPSLAELESLSKTHLFLMDIGIWLLSDRAVEILMKRSHKESSEELKYYDLYSDFGLALGTHPRIEDEEVNTLSVAILPLPGGEFYHYGTSKELISSTLSVQNKVYDQRRIMHRKVKPNPAMFVQNAVVRIPLCAENADLWIENSHIGPKWKIASRHIITGVPENDWSLAVPAGVCVDVVPMGDKGFVARPYGLDDVFKGDLRDSKTTLTGIPFGEWMSKRGLSYTDLKGRTDDLQAVSVFPMVNSVEELGLVLRWMLSEPELEEGKNIWLRSEHFSADEISAGANLKRLYAQREEFRKGNWKALAVNHEKSVFYQLDLADAAEDFVRLGLDMPELLPEDALQMSRIHNRMLRARILKLDGKDYRPEEQAAFDLLRDGLLDGISNRKSTPKLDVYSDQIVWGRSPVRIDMAGGWTDTPPYSLYSGGNVVNLAIELNGQPPLQVYVKPCKDFHIVLRSIDMGAMEIVSTFDELQDYKKIGSPFSIPKAALSLAGFAPAFSAVSYASLEEQLKDFGAGIEVTLLAAIPAGSGLGTSSILASTVLGAINDFCGLAWDKNEICQRTLVLEQLLTTGGGWQDQYGGVLQGVKLLQTEAGFAQSPLVRWLPDHLFTHPEYKDCHLLYYTGITRTAKGILAEIVSSMFLNSSLHLNLLSEMKAHALDMNEAIQRGSFVEFGRLVGKTWEQNKALDSGTNPPAVEAIIDLIKDYTLGYKLPGAGGGGYLYMVAKDPQAAVRIRKILTENAPNPRARFVEMTLSDKGFQVSRS | – | 4
